Patent US20220306695A1, “COMPSTATIN ANALOGUES AND THEIR MEDICAL USES” (priority 2019, published 2022)
Where two headings read alike, the source gives them in different places. Starred links: 1 amine or outer side, 2 acyl side, 3 side chain; linkers in the order of their positions; H or OH if unused. Positions of bridges follow the written chain, without caps; N, C: chain ends. Non-standard residues stand in square brackets, D forms with d. Residues, ends and D or L forms follow the SMILES beside them. Groups on a side chain read outwards from the residue. *: point of attachment. Trp(1-Me) = Cn1cc(C[C@H](N)C(=O)O)c2ccccc21; Abu(4-yl) = O=C([C@H](CC[*:3])N[*:1])[*:2]; C18 diacid = O=C(O)CCCCCCCCCCCCCCCCC(=O)*; C16 diacid = O=C(O)CCCCCCCCCCCCCCC(=O)*; γGlu = O=C(O)[C@H](CCC(=O)[*:2])N[*:1]; AEEA = NCCOCCOCC(=O)O; Sar = CNCC(=O)O

Tests used:
[1] = tested on: classical complement pathway; assay: In vitro haemolysis assay (inhibition of classical complement pathway); assay type: cell-based, human; details: Table 3; human serum, sensitized sheep red blood cells; read-out: IC50[nM], in vitro analysis of inhibition of hemolysis
Outline: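 Serially diluted compound (9 points) was preincubated 15 min at room temperature with diluted human serum, titrated per batch to give 70-90% maximal haemolysis, in Tris/casein buffer pH 7.4 with Mg2+/Ca2+. Antibody-sensitized sheep erythrocytes were then added for 30 min at 37° C, and the reaction was stopped with EDTA. Haemolysis was read at A405, with IC50 from 4PL fit.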

[2] = assay type: physicochemical; details: 50 mg/mL peptide; for Covalent oligomer content after 14 days 40° C. (%), F1 / Purity after 14 days 40° C. (%), F1: F1: 20 mM phosphate pH 5.5; for Covalent oligomer content after 14 days 40° C. (%), F1 / Covalent oligomer content after 14 days 40° C. (%), F2: denaturing SEC; for Purity after 14 days 40° C. (%), F1 / Purity after 14 days 40° C. (%), F2 / Purity after 14 days 40° C. (%), F3: normalized purity (HPLC)
Protocol: Chemical stability of compstatin analogues with cystathionine or disulfide bridge. Stability was assessed in three formulations at 50 mg/mL peptide, F1:20 mM phosphate pH 5.5, F2:20 mM phosphate pH 6.5 and F3:20 mM phosphate pH 7.5. The formulations were prepared by direct dissolution of peptide from lyophilized portions in the respective formulations. pH was adjusted to target with 1 M NaOH and 1 M HCl. Chemical stability was assessed under accelerated conditions (14 days, 40° C.) and evaluated as change in purity by reverse phase HPLC, and change in covalent oligomer content by denaturing SEC. The formulations were placed at 40° C. with analysis points at T=0, 7 and 14 days. On each time point a small volume was extracted and diluted to 2 mg/mL and tested by reverse phase HPLC and denaturing SEC. Purity was assessed by reverse phase HPLC using an Ultimate 3000 system for binary gradient application equipped with a Kinetix C18 column (cat. no. 00F-4462-Y0, 150 mm×3 mm, 2.6 μm) run at 0.5 ml/min with a gradient of buffer A (0.3% TFA, aq.) and buffer B (0.3% TFA, 90% MeCN, aq.) gradient from 40% B to 70% B over 20 min. Detection was done using a diode array detector set to 220 nm. Covalent oligomer formation was assessed by denaturing SEC (size exclusion chromatography) using an Ultimate 3000 system equipped with a TSKgel SuperSW 2000 column (cat. no. 818674, 300 mm×3 mm, 4 μm) run at 0.5 ml/min with isocratic flow of buffer A (0.1% TFA, 45% MeCN, aq.), 10 min. Detection was done using a diode array detector set to 215 nm. Compounds 126 and 156 were carefully weighed out and dissolved in formulations F1, F2 and F3 to a target concentration of 50 mg/mL. Once visually dissolved, concentration was confirmed by absorbance at 280 nm, and samples were placed in stability at 40° C. Samples for analysis were extracted on T=0, 7 and 14 days from a 40° C. climate chamber. The extracted volume was dissolved 1:25 (final concentration: 2 mg/mL) in 20 mM phosphate pH 5.5, 6.5 or 7.5 and measured by reverse phase HPLC and denaturing SEC by injection of 0.4 μL (column load […]). The resulting chromatograms were integrated to determine chemical purity by reverse phase HPLC and covalent oligomer content by denaturing SEC.

Human C3 [3] = target: T1, Human C3 (human, UniProt P01024 23-1663); assay: cell-based or functional assay
Human C3 [4] = target: T1, Human C3; assay: cell-based or functional assay; remark: listed apart in the source

T1 sequence (P01024 23-1663 limits assumed): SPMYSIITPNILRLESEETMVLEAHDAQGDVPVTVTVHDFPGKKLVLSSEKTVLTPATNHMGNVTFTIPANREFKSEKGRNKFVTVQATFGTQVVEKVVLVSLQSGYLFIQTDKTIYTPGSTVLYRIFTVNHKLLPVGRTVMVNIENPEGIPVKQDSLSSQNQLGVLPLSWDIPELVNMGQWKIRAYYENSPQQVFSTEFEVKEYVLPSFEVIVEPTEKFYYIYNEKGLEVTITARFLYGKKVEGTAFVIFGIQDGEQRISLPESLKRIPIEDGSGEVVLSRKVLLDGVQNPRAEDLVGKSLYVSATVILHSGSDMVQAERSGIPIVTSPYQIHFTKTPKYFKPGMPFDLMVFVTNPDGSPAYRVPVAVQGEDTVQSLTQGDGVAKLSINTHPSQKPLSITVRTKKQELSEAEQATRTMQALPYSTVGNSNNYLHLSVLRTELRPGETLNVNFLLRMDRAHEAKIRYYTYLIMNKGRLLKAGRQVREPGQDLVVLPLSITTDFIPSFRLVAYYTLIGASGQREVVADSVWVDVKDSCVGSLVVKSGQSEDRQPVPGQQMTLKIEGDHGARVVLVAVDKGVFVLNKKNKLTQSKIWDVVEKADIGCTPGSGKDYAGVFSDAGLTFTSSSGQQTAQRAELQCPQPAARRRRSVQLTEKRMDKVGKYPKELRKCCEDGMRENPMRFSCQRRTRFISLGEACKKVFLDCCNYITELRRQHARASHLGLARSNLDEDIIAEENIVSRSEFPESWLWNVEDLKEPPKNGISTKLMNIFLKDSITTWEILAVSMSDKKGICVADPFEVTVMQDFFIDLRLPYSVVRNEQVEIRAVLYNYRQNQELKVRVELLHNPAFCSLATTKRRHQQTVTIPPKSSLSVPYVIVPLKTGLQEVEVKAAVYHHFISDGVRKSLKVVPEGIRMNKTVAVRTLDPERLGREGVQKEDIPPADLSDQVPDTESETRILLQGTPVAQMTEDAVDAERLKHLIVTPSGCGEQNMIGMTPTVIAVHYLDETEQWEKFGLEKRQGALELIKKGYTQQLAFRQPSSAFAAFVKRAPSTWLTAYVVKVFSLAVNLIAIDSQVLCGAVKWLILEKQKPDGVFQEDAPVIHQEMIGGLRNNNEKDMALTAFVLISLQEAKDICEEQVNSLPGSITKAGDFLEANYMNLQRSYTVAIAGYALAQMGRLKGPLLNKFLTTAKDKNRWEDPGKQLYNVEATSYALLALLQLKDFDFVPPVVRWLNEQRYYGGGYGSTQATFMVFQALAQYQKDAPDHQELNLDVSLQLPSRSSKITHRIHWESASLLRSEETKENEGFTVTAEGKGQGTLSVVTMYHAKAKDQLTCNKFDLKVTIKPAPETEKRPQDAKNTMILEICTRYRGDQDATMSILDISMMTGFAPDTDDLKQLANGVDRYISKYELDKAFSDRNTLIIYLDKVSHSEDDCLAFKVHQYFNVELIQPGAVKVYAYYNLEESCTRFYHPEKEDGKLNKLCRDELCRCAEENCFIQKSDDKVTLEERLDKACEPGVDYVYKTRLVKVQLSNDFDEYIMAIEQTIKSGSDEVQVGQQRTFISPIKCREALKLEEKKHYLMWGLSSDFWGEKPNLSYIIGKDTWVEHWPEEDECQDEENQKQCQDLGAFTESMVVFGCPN

| Molecule | IC50 [1] [nM] | Covalent oligomer content after 14 days 40° C. (%), F1 [2] [%] | Purity after 14 days 40° C. (%), F1 [2] [%] | Covalent oligomer content after 14 days 40° C. (%), F2 ([2]; F2: 20 mM phosphate pH 6.5) [%] | Purity after 14 days 40° C. (%), F2 ([2]; F2: 20 mM phosphate pH 6.5) [%] | Covalent oligomer content after 14 days 40° C. (%), F2 ([2]; F3: 20 mM phosphate pH 7.5) [%] | Purity after 14 days 40° C. (%), F3 ([2]; F3: 20 mM phosphate pH 7.5) [%] | IC50[nM], inhibition of hemolysis (Human C3 [3]) [nM] | IC50[nM], inhibition of hemolysis (Human C3 [4]) [nM] |
| --- | --- | --- | --- | --- | --- | --- | --- | --- | --- |
| CC[C@H](C)[C@@H]1NC(=O)[C@@H](NC(=O)[C@H](Cc2ccccc2)NC(=O)[C@H](CCC(=O)O)NC(=O)[C@H](CO)NC(C)=O)CSCC[C@@H](C(=O)N[C@H](C(=O)N[C@@H](CCC(=O)O)C(=O)NCC(=O)N[C@@H](CCC(=O)O)C(=O)NCCOCCOCC(=O)NCCOCCOCC(=O)N[C@@H](CCCCNC(=O)CC[C@H](NC(=O)CNC(=O)CC[C@H](NC(=O)CCCCCCCCCCCCCCCCC(=O)O)C(=O)O)C(=O)O)C(N)=O)[C@@H](C)O)NC(=O)[C@H](CCCNC(=N)N)NC(=O)[C@H](Cc2c[nH]cn2)NC(=O)[C@H](CCC(=O)O)NC(=O)CNC(=O)[C@H](Cc2c[nH]c3ccccc23)NC(=O)[C@H](CC(=O)O)NC(=O)[C@H](CCC(N)=O)NC(=O)[C@H](Cc2cn(C)c3ccccc23)NC1=O [Compound 156, Ac-SEFA(1)I[1-Me-Trp]QDWGEHRhC(1)TEGE[Peg3][Peg3]-K([17-carboxy-heptadecanoyl][γGlu]G[γGlu])-NH2] (Ac-SEFCI[Trp(1-Me)]QDWGEHR[Abu(4-yl)]TEGE[AEEA][AEEA]K([γGlu-Gly-γGlu-C18 diacid])-NH2; thioether 4-14) | < 100 | 1.1 | 92 | 0.5 | 96 | 1.1 | 95 | – | – |
| CC[C@H](C)[C@@H]1NC(=O)[C@@H](NC(=O)[C@H](Cc2ccccc2)NC(=O)[C@H](CCC(=O)O)NC(=O)[C@H](CO)NC(C)=O)CSCC[C@@H](C(=O)N(C)CC(=O)N[C@@H](CCC(=O)O)C(=O)NCC(=O)N[C@@H](CCC(=O)O)C(=O)NCCOCCOCC(=O)NCCOCCOCC(=O)N[C@@H](CCCCNC(=O)CC[C@H](NC(=O)CNC(=O)CC[C@H](NC(=O)CCCCCCCCCCCCCCCCC(=O)O)C(=O)O)C(=O)O)C(N)=O)NC(=O)[C@H](CCCNC(=N)N)NC(=O)[C@H](Cc2c[nH]cn2)NC(=O)[C@H](CCC(=O)O)NC(=O)CNC(=O)[C@H](Cc2c[nH]c3ccccc23)NC(=O)[C@H](CCC(=O)O)NC(=O)[C@H](CCC(N)=O)NC(=O)[C@H](Cc2cn(C)c3ccccc23)NC1=O [Compound 153] (Ac-SEFCI[Trp(1-Me)]QEWGEHR[Abu(4-yl)][Sar]EGE[AEEA][AEEA]K([γGlu-Gly-γGlu-C18 diacid])-NH2; thioether 4-14) | < 100 | 0.7 | 97 | 0.5 | 99 | 0.3 | 99 | – | – |
| CC[C@H](C)[C@@H]1NC(=O)[C@@H](NC(=O)[C@H](Cc2ccccc2)NC(=O)[C@H](CCC(=O)O)NC(=O)[C@H](CO)NC(C)=O)CSSC[C@@H](C(=O)N[C@H](C(=O)N[C@@H](CCC(=O)O)C(=O)NCC(=O)N[C@@H](CCC(=O)O)C(=O)NCCOCCOCC(=O)NCCOCCOCC(=O)N[C@@H](CCCCNC(=O)CC[C@H](NC(=O)CNC(=O)CC[C@H](NC(=O)CCCCCCCCCCCCCCCCC(=O)O)C(=O)O)C(=O)O)C(N)=O)[C@@H](C)O)NC(=O)[C@H](CCCNC(=N)N)NC(=O)[C@H](Cc2c[nH]cn2)NC(=O)[C@H](CCC(=O)O)NC(=O)CNC(=O)[C@H](Cc2c[nH]c3ccccc23)NC(=O)[C@H](CC(=O)O)NC(=O)[C@H](CCC(N)=O)NC(=O)[C@H](Cc2cn(C)c3ccccc23)NC1=O [Compound 126] (Ac-SEFCI[Trp(1-Me)]QDWGEHRCTEGE[AEEA][AEEA]K([γGlu-Gly-γGlu-C18 diacid])-NH2; disulfide 4-14) | < 100 | 66 | 45 | 54 | 47 | 41 | 57 | – | – |
| Ac-ICIWQDWGEHRCTEGK([AEEA-AEEA-γGlu-C16 diacid])-NH2 (disulfide 2-12; SMILES CC[C@H](C)[C@H](NC(C)=O)C(=O)N[C@H]1CSSC[C@@H](C(=O)N[C@H](C(=O)N[C@@H](CCC(=O)O)C(=O)NCC(=O)N[C@@H](CCCCNC(=O)COCCOCCNC(=O)COCCOCCNC(=O)CC[C@H](NC(=O)CCCCCCCCCCCCCCC(=O)O)C(=O)O)C(N)=O)[C@@H](C)O)NC(=O)[C@H](CCCNC(=N)N)NC(=O)[C@H](Cc2c[nH]cn2)NC(=O)[C@H](CCC(=O)O)NC(=O)CNC(=O)[C@H](Cc2c[nH]c3ccccc23)NC(=O)[C@H](CC(=O)O)NC(=O)[C@H](CCC(N)=O)NC(=O)[C@H](Cc2c[nH]c3ccccc23)NC(=O)[C@H]([C@@H](C)CC)NC1=O) [Compound 93] | – | – | – | – | – | – | – | < 500 | – |
| Ac-K([AEEA-AEEA-γGlu-C16 diacid])GSAICIWQDWGEHRCTEGE-NH2 (disulfide 6-16; SMILES CC[C@H](C)[C@H](NC(=O)[C@H](C)NC(=O)[C@H](CO)NC(=O)CNC(=O)[C@H](CCCCNC(=O)COCCOCCNC(=O)COCCOCCNC(=O)CC[C@H](NC(=O)CCCCCCCCCCCCCCC(=O)O)C(=O)O)NC(C)=O)C(=O)N[C@H]1CSSC[C@@H](C(=O)N[C@H](C(=O)N[C@@H](CCC(=O)O)C(=O)NCC(=O)N[C@@H](CCC(=O)O)C(N)=O)[C@@H](C)O)NC(=O)[C@H](CCCNC(=N)N)NC(=O)[C@H](Cc2c[nH]cn2)NC(=O)[C@H](CCC(=O)O)NC(=O)CNC(=O)[C@H](Cc2c[nH]c3ccccc23)NC(=O)[C@H](CC(=O)O)NC(=O)[C@H](CCC(N)=O)NC(=O)[C@H](Cc2c[nH]c3ccccc23)NC(=O)[C@H]([C@@H](C)CC)NC1=O) [Compound 100] | – | – | – | – | – | – | – | – | < 500 |
| Ac-SE[Sar]CI[Trp(1-Me)]QDWGEHRCTEA-NH2 (disulfide 4-14; SMILES CC[C@H](C)[C@@H]1NC(=O)[C@@H](NC(=O)CN(C)C(=O)[C@H](CCC(=O)O)NC(=O)[C@H](CO)NC(C)=O)CSSC[C@@H](C(=O)N[C@H](C(=O)N[C@@H](CCC(=O)O)C(=O)N[C@@H](C)C(N)=O)[C@@H](C)O)NC(=O)[C@H](CCCNC(=N)N)NC(=O)[C@H](Cc2c[nH]cn2)NC(=O)[C@H](CCC(=O)O)NC(=O)CNC(=O)[C@H](Cc2c[nH]c3ccccc23)NC(=O)[C@H](CC(=O)O)NC(=O)[C@H](CCC(N)=O)NC(=O)[C@H](Cc2cn(C)c3ccccc23)NC1=O) [Compound 82] | – | – | – | – | – | – | – | < 100 | – |
| Ac-ICIWQDWGEHRCTEGK([γGlu-C16 diacid])-NH2 (disulfide 2-12; SMILES CC[C@H](C)[C@H](NC(C)=O)C(=O)N[C@H]1CSSC[C@@H](C(=O)N[C@H](C(=O)N[C@@H](CCC(=O)O)C(=O)NCC(=O)N[C@@H](CCCCNC(=O)CC[C@H](NC(=O)CCCCCCCCCCCCCCC(=O)O)C(=O)O)C(N)=O)[C@@H](C)O)NC(=O)[C@H](CCCNC(=N)N)NC(=O)[C@H](Cc2c[nH]cn2)NC(=O)[C@H](CCC(=O)O)NC(=O)CNC(=O)[C@H](Cc2c[nH]c3ccccc23)NC(=O)[C@H](CC(=O)O)NC(=O)[C@H](CCC(N)=O)NC(=O)[C@H](Cc2c[nH]c3ccccc23)NC(=O)[C@H]([C@@H](C)CC)NC1=O) [Compound 92] | – | – | – | – | – | – | – | < 1000 | – |
